Laboratory results taken from patent US8614342B2, “Process for preparing epoxycarboxylic esters” (BASF SE, priority 2012, dated 2013).

Conditions: 20° C.

With `COC(=O)C1CO1` (stereo not shown) [MEP, Methyl Epoxy Propionate] the “solubility of MEP in water” value was 43 g/10 g of H2O.
